{"source": "patent US20150219624A1", "about": "“METHODS FOR IDENTIFYING ANTI-CANCER COMPOUNDS” (MEMORIAL SLOAN KETTERING CANCER CENTER, priority 2013, published 2015)", "assay_type_in_all_cases": "cell-based", "key": {"[1]": {"system": "neuroblastoma cell lines SKNAS, CLBGA, IMR32 and N206", "assay": "Silvestrol IC50 in neuroblastoma cell lines SKNAS, CLBGA, IMR32 and N206"}, "[2]": {"system": "BE(1)N", "assay": "Silvestrol in neuroblastoma cell lines in vitro: BE(1)N", "conditions": "BE(1)N cells, N-MYC", "description": "The effect of silvestrol on several neuroblastoma cell lines was evaluated."}, "[3]": {"system": "murine T-ALL cells", "assay": "Silvestrol effect on murine T-ALL cells with engineered genetic lesions", "conditions": "cells expressing Akt, mutant IL7R, eIF4E or shRNA against Pten"}}, "note": "pIC50: −log10 of the molar value.", "data": [{"compound": "COC(=O)[C@H]1[C@@H](O)[C@@]2(O)c3c(OC)cc(O[C@@H]4O[C@@H]([C@H](O)CO)CO[C@H]4OC)cc3O[C@@]2(c2ccc(OC)cc2)[C@@H]1c1ccccc1", "note": "[silvestrol]", "values": [{"measurement": "pIC50", "setting": "[1]", "value": "7.70 to 8.70"}, {"measurement": "pIC50", "setting": "[2]", "value": 8.60}, {"measurement": "sensitivity of murine T-ALL cells", "setting": "[3]", "value": "no significant difference in sensitivity"}]}]}
